We go through two compounds from BindingDB's records for doi:10.1016/j.bmcl.2005.08.072 (Merck Research Laboratories, 2005).

Bounds are passed on as bounds.

For the test, the target named is T1, Dimer of Gag-Pol polyprotein [489-587,Q496K] (Human immunodeficiency virus 1, UniProt P12497, Q496K).
T1 construct: 489-587
Put plainly: Protease Inhibition Assay. The conditions noted are these: pH 5.5; 30 °C. The protocol:
Assay of HIV protease inhibition was performed by peptide cleavage using the substrate Val-Ser-Gln-Asn-beta-naphthylalanine*Pro-Ile-Val. Products of the cleavage reaction were quantified by HPLC detection, and data were fit to nonlinear least squares equations for determination of steady-state Michaelis-Menten kinetics.

The compound `CC(C)(c1ncc(-c2ccc(Cl)cc2)o1)N1CCN(C[C@@H](O)C[C@@H](Cc2cc3ccncc3s2)C(=O)N[C@H]2c3ccccc3OC[C@H]2O)[C@H](C(=O)NCC(F)(F)F)C1` [(2S)-4-{2-[5-(4-chlorophenyl)-1,3-oxazol-2-yl]propan-2-yl}-1-[(2S,4S)-2-hydroxy-4-{[(3S,4S)-3-hydroxy-3,4-dihydro-2H-1-benzopyran-4-yl]carbamoyl}-4-{thieno[2,3-c]pyridin-2-ylmethyl}butyl]-N-(2,2,2-trifluoroethyl)piperazine-2-carboxamide] registered an IC50 of under 0.02 nM.

In turn, `CC(C)(c1ncc(-c2ccc(Cl)cc2)o1)N1CCN(C[C@@H](O)C[C@@H](Cc2cc3c(Cl)cncc3s2)C(=O)N[C@H]2c3ccccc3OC[C@H]2O)[C@H](C(=O)NCC(F)(F)F)C1` [(2S)-4-{2-[5-(4-chlorophenyl)-1,3-oxazol-2-yl]propan-2-yl}-1-[(2S,4S)-4-({4-chlorothieno[2,3-c]pyridin-2-yl}methyl)-2-hydroxy-4-{[(3S,4S)-3-hydroxy-3,4-dihydro-2H-1-benzopyran-4-yl]carbamoyl}butyl]-N-(2,2,2-trifluoroethyl)piperazine-2-carboxamide] returned an IC50 of under 0.02 nM.
